In patent US20230381157A1, “RIFABUTIN FOR THE TREATMENT OF ACINETOBACTER BAUMANNII” (University of Southern California, priority 2018, published 2023):
In brackets after ≈: the same amount, converted by molar mass. Entries after “also recorded” stand apart in the source; their conditions may differ. Like-named read-outs stand apart in the source and are kept apart here.

Tests used:
[1] = tested on: A. baumannii; experiment: MIC, broth microdilution, A. baumannii clinical isolates / strain panel; format: cell-based, Acinetobacter baumannii; settings: for MIC50 / MIC90: A. baumannii strain panel
[2] = tested on: K. pneumonia; experiment: MIC, broth microdilution; format: cell-based; settings: Klebsiella pneumoniae, K. pneumonia KPC-KP1
[3] = tested on: E. coli; experiment: MIC, broth microdilution; format: cell-based; settings: Escherichia coli
[4] = tested on: A. baumannii; format: cell-based, Acinetobacter baumannii
[5] = tested on: E. coli JJ1886; format: cell-based, Escherichia coli; settings: TSA
[6] = tested on: A. baumannii HUMC1; format: in vivo, mouse; settings: for lung CFUs: lungs at 24 hrs post infection
[7] = tested on: GFP expressing reporter strain of A. baumannii HUMC1; format: cell-based, Acinetobacter baumannii; settings: addition of amino acids to RPMI vs RPMI alone; 6 hours
[8] = tested on: HepG2; settings: top screen hits; IC50 against A. baumannii HUMC1 in 50% serum
[9] = 5 mg/kg/daily for 3 days, oral gavage
[10] = 5 mg/kg/daily for 3 days, oral gavage, listed as RBT

## CO[C@H]1/C=C/O[C@@]2(C)Oc3c(C)c(O)c4c(c3C2=O)C2=NC3(CCN(CC(C)C)CC3)NC2=C(NC(=O)/C(C)=C\C=C\[C@H](C)[C@H](O)[C@@H](C)[C@@H](O)[C@@H](C)[C@H](OC(C)=O)[C@@H]1C)C4=O [rifabutin]
[1]; AB15827, RPMI
  Rifabutin MIC: 0.2 µg/mL
[1]; ARLG-1314, MHII
  Rifabutin MIC: 6.25 µg/mL
[1]; ARLG-1314, RPMI
  Rifabutin MIC: < 0.05 µg/mL
[1]; ARLG-1777, MHII
  Rifabutin MIC: 6.25 µg/mL
[1]; ARLG-1777, RPMI
  Rifabutin MIC: 3.13 µg/mL
[1]; ARLG-1915, MHII
  Rifabutin MIC: 3.13 µg/mL
[1]; ARLG-1915, RPMI
  Rifabutin MIC: 0.1 µg/mL
[1]; ATCC 17978, MHII
  Rifabutin MIC: 3.12 µg/mL
[1]; ATCC 17978, RPMI
  Rifabutin MIC: < 0.05 µg/mL
[1]; Acinetobacter baumannii, A. baumannii (strain not named), MHII
  MIC: 4 µg/mL (≈ 4.72 µM)
[1]; Acinetobacter baumannii, A. baumannii (strain not named), RPMI with serum
  MIC: 0.031 µg/mL (≈ 0.0366 µM)
[1]; Acinetobacter baumannii, A. baumannii VA-AB21, MHII
  MIC: 3.12 µg/mL (≈ 3.69 µM)
[1]; Acinetobacter baumannii, A. baumannii VA-AB21, RPMI
  MIC: 0.391 µg/mL (≈ 0.462 µM)
[1]; Acinetobacter baumannii, CAMHB
  MIC50: 3.13 µg/mL (≈ 3.7 µM)
  MIC90: 6.25 µg/mL (≈ 7.38 µM)
[1]; Acinetobacter baumannii, RPMI
  MIC50: 0.39 µg/mL (≈ 0.46 µM)
  MIC90: 3.13 µg/mL (≈ 3.7 µM)
[1]; Acinetobacter baumannii, ATCC17978, A. baumannii ATCC17978 and HUMC1, MHII
  MIC: 2 µg/mL (≈ 2.36 µM)
[1]; Acinetobacter baumannii, ATCC17978, A. baumannii ATCC17978 and HUMC1, RPMI
  MIC: < 0.0625 µg/mL
[1]; Acinetobacter baumannii, up to
  fold lower MIC in RPMI than in Mueller-Hinton-based medium (CAMHB): up to 200 fold
[1]; HUMC6, MHII
  Rifabutin MIC: 25 µg/mL
[1]; HUMC6, RPMI
  Rifabutin MIC: 3.13 µg/mL
[1]; HUMC10, MHII
  Rifabutin MIC: 12.5 µg/mL
[1]; HUMC10, RPMI
  Rifabutin MIC: < 0.05 µg/mL
[1]; LAC -- 4, MHII
  Rifabutin MIC: 0.78 µg/mL
[1]; LAC -- 4, RPMI
  Rifabutin MIC: 1.56 µg/mL
[1]; LACUSC-01, MHII
  Rifabutin MIC: 6.25 µg/mL
[1]; LACUSC-01, RPMI
  Rifabutin MIC: < 0.05 µg/mL
[1]; NIH1, MHII
  Rifabutin MIC: 3.13 µg/mL
[1]; NIH1, RPMI
  Rifabutin MIC: 3.13 µg/mL
[1]; UH118, MHII
  Rifabutin MIC: 3.13 µg/mL
[1]; UH118, RPMI
  Rifabutin MIC: 0.2 µg/mL
[1]; UH516, MHII
  Rifabutin MIC: > 25 µg/mL
[1]; UH516, RPMI
  Rifabutin MIC: > 25 µg/mL
[1]; UH2207, MHII
  Rifabutin MIC: 6.25 µg/mL
[1]; UH2207, RPMI
  Rifabutin MIC: 3.13 µg/mL
[1]; UH6507, MHII
  Rifabutin MIC: 3.13 µg/mL
[1]; UH6507, RPMI
  Rifabutin MIC: 0.39 µg/mL
[1]; VA-AB21, MHII
  Rifabutin MIC: 3.12 µg/mL
[1]; VA-AB21, RPMI
  Rifabutin MIC: 0.391 µg/mL
[1]; VA-AB74, MHII
  Rifabutin MIC: 6.25 µg/mL
[1]; VA-AB74, RPMI
  Rifabutin MIC: 3.13 µg/mL
[2]; MHII
  MIC: 25 µg/mL (≈ 29.5 µM)
[2]; RPMI
  MIC: 12.5 µg/mL (≈ 14.8 µM)
[3]; E. coli DH5a, MHII
  MIC: 6.25 µg/mL (≈ 7.38 µM)
[3]; E. coli JJ1886, MHII
  MIC: 6.25 µg/mL (≈ 7.38 µM)
[3]; E. coli JJ1886, RPMI
  MIC: 6.25 µg/mL (≈ 7.38 µM)
[4]; A. baumannii ABNIH1, MHII
  Mutation Frequency: 8.85E−09
[4]; A. baumannii ABNIH1, TSA
  Mutation Frequency: 5.95E−09
[4]; A. baumannii ATCC17978, MHII
  Mutation Frequency: 5.72E−09
[4]; A. baumannii ATCC17978, TSA
  Mutation Frequency: 8.49E−10
[4]; A. baumannii HUMC1, MHII
  Mutation Frequency: 2.20E−09
[4]; A. baumannii HUMC1, TSA
  Mutation Frequency: 1.28E−08
[4]; A. baumannii LAC-4, MHII
  Mutation Frequency: 1.29E−08
[4]; A. baumannii LAC-4, TSA
  Mutation Frequency: 7.41E−09
[5]
  Mutation Frequency: 3.89E−08
[6]; 5 mg/kg for 3 days, […]
  survival: about 80%
[6]; [9]
  survival: significantly improved
  lung CFUs: significantly lower CFUs in the lung
[6]; [10]
  survival: significantly improved survival
  lung CFUs: significantly reduced lung CFUs; also recorded: significantly lower CFUs in the lung
[6]; 10 mg/kg/day for 3 days, oral gavage, listed as RBT
  survival: modest improvement in survival; also recorded: modest survival benefit
[6]; 10 mg/kg/day for 3 days, at 24 hours
  reduction in the median CFUs in the blood as compared to RIF-treated mice: 7 log
[6]; C3H mice, 10 mg/kg/daily for 3 days, oral gavage, blood at 24 hrs
  CFUs in blood (vs RIF): significant reduction in CFUs
[6]; murine pneumonia, 5 mg/kg
  improvement of survival rates: over 70%
[6]; murine pneumonia, 5 mg/kg, day 7 post-infection
  bacterial burden: about 2 Log10(CFU/mg lung)
[7]
  inhibition of GFP fluorescence: less inhibition of GFP fluorescence
[8]
  Specificity HepG2 (CC50/IC50): 148.31
